Among the test systems are EKVX NSCLC; TK-10 renal; RXF 393 renal; HL-60(TB) leukemia; NCI/ADR-RES ovarian; BT-549 breast; MDA-MB-231 breast; UO-31 renal; SNB-75 CNS; NCI-H226 lung.
Common to all, as to assay: NCI-60 cell line screen, 48 h

Where “and” joins values, the source holds several entries; their conditions need not be identical. Identical values can stand only once.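 Step 1: Grow cells in 96-well plates. Step 2: Expose to compound for 48 hours at 5 concentrations. Step 3: Interpolate endpoints linearly; if unreached, use highest concentration. Here, GI50 denotes the concentration required for 50% inhibition of growth. The concentration for full growth arrest is given as TGI.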

Regarding `Cn1c(=O)c(F)c(Nc2ccc(I)cc2F)c2c(=O)n(C[C@@H](O)CO)cnc21`, the GI50 is 0.042 µM and 0.0485 µM in the test on EKVX NSCLC; 0.16 µM and 0.162 µM with RXF 393 renal; < 0.01 µM and 0.00141 µM in the test on HL-60(TB) leukemia; 12.7 µM and > 2.46 µM in the test on NCI/ADR-RES ovarian; 12.6 µM with BT-549 breast; 0.0442 µM and 0.0456 µM with MDA-MB-231 breast. In addition, the GI50 in the test on UO-31 renal is 0.304 µM and 0.0568 µM; with SNB-75 CNS, 4.11 µM. The TGI was over 64.1 µM in the test on EKVX NSCLC; 26.4 µM in the test with TK-10 renal; 4 µM and > 2.93 µM with RXF 393 renal; 23.1 µM with HL-60(TB) leukemia; over 100 µM in the test with NCI/ADR-RES ovarian; over 95.8 µM with BT-549 breast. In addition, the TGI in the test with MDA-MB-231 breast was 8.98 µM and > 1.99 µM; in the test with UO-31 renal, 15.4 µM and > 4.09 µM; with SNB-75 CNS, 30.8 µM and > 2.29 µM.

Consider `N#C/C(=C/N1CCN(C(=O)c2ccco2)C1=S)C(N)=O`, for which the GI50 is 0.342 µM in the test with EKVX NSCLC; 12.1 µM in the test with TK-10 renal; 19.2 µM with RXF 393 renal; 22 µM in the test on HL-60(TB) leukemia; 25.4 µM in the test on NCI/ADR-RES ovarian; 22.5 µM in the test on BT-549 breast. Also, the GI50 was 13.1 µM in the test with MDA-MB-231 breast, 23.5 µM with UO-31 renal and over 100 µM in the test on SNB-75 CNS. For the same molecule, the TGI was determined as 0.982 µM with EKVX NSCLC; 53.6 µM in the test on TK-10 renal; 82.2 µM with RXF 393 renal; 57.3 µM in the test with HL-60(TB) leukemia; 59.6 µM with NCI/ADR-RES ovarian; 55.9 µM in the test with BT-549 breast. The TGI in the test on MDA-MB-231 breast was 37 µM; in the test on UO-31 renal, 51.8 µM; with SNB-75 CNS, over 100 µM.

For `CC1=C(C)C(=O)C(C(C)C2=C(C)C(=O)C(C)=C(C)C2=O)=C(C)C1=O`, the GI50 with EKVX NSCLC was 32.6 µM; in the test on NCI-H226 lung it was 58.3 µM; in the test on TK-10 renal it was 90.6 µM; in the test with RXF 393 renal, 31.7 µM; in the test with HL-60(TB) leukemia it was 6.94 µM; with NCI/ADR-RES ovarian, 17.9 µM. In addition, the GI50 is 45.1 µM in the test with BT-549 breast, 13.8 µM with MDA-MB-231 breast and 27.6 µM with UO-31 renal. Besides, the TGI was over 100 µM with EKVX NSCLC; over 100 µM with NCI-H226 lung; over 100 µM with TK-10 renal; 82.7 µM in the test with RXF 393 renal; 24.5 µM with HL-60(TB) leukemia; 52 µM with NCI/ADR-RES ovarian. Besides, the TGI with BT-549 breast is over 100 µM; in the test on MDA-MB-231 breast, 30.4 µM; with UO-31 renal, 85.5 µM.

Consider `O=C(Nc1ccccc1Cl)c1ccc(NC2=C(Cl)C(=O)N(Cc3ccccc3)C2=O)cc1`, for which the GI50 is over 100 µM in the test with EKVX NSCLC; 32.5 µM in the test with NCI-H226 lung; 46.7 µM in the test with TK-10 renal; 18.4 µM in the test with RXF 393 renal; 22.5 µM in the test with HL-60(TB) leukemia; 86.2 µM in the test on NCI/ADR-RES ovarian. In addition, the GI50 with BT-549 breast was 43 µM; in the test on MDA-MB-231 breast it was 31.3 µM; in the test with UO-31 renal it was over 100 µM. Also, the TGI in the test with EKVX NSCLC is over 100 µM; in the test with NCI-H226 lung, 92.3 µM; in the test with TK-10 renal, over 100 µM; in the test with RXF 393 renal, 38.2 µM; in the test on HL-60(TB) leukemia it was 50.6 µM; in the test on NCI/ADR-RES ovarian, over 100 µM. Also, the TGI in the test on BT-549 breast was over 100 µM; in the test on MDA-MB-231 breast, 91.9 µM; in the test with UO-31 renal, over 100 µM.

Turning to `O=C1c2cccnc2-c2nc(-c3ccc([N+](=O)[O-])cc3)cc3c2c1nc1ccccc13`, the GI50 in the test with EKVX NSCLC was 10.7 µM; in the test on NCI-H226 lung, 9.63 µM; in the test with TK-10 renal it was 8.41 µM; with RXF 393 renal it was 9.37 µM; with NCI/ADR-RES ovarian it was 2.44 µM; in the test on BT-549 breast, 10.4 µM. Also, the GI50 was 7.97 µM in the test with MDA-MB-231 breast, 5.1 µM in the test with UO-31 renal and 4.43 µM in the test on SNB-75 CNS. Further, the TGI with EKVX NSCLC was determined as 44.6 µM; in the test with NCI-H226 lung, 33.4 µM; with TK-10 renal it was 24.9 µM; in the test on RXF 393 renal it was 37.7 µM; in the test with NCI/ADR-RES ovarian it was 10.3 µM; in the test on BT-549 breast it was 28.6 µM. Moreover, the TGI was over 100 µM with MDA-MB-231 breast, over 66.1 µM in the test with UO-31 renal and 12.1 µM with SNB-75 CNS.

Turning to `COc1ccc(/C=C(/C(=O)N2CCNCC2)c2cc(OC)c(OC)c(OC)c2)cc1O`, the GI50 in the test with EKVX NSCLC was 6.43 µM; with NCI-H226 lung it was 5.4 µM; in the test with TK-10 renal, 79.4 µM; in the test with RXF 393 renal it was 2.95 µM; with HL-60(TB) leukemia, 1.87 µM; in the test with NCI/ADR-RES ovarian, over 100 µM. Moreover, the GI50 in the test with BT-549 breast is 4.22 µM; in the test on MDA-MB-231 breast, 4.41 µM; in the test with UO-31 renal, 55.5 µM. In addition, the TGI with EKVX NSCLC is over 100 µM; in the test on NCI-H226 lung, over 100 µM; in the test with TK-10 renal, over 100 µM; in the test on RXF 393 renal, over 100 µM; in the test on HL-60(TB) leukemia it was 5.5 µM; in the test with NCI/ADR-RES ovarian, over 100 µM. In addition, the TGI with BT-549 breast was 48.4 µM; with MDA-MB-231 breast it was over 100 µM; in the test with UO-31 renal, over 100 µM.
